Assay results: ChEMBL document CHEMBL1933035, “Discovery of pyrrolidine-based β-secretase inhibitors: lead advancement through conformational design for maintenance of ligand binding efficiency” (Bioorg Med Chem Lett, 2012)

What was measured:
[1] = Oral bioavailability in rat at 10 mg/kg; type: ADME, organism-based; conditions: in vivo
[2] = Clearance in rat at 2 mg/kg, iv; type: ADME, organism-based; set-up: dose 2 mg/kg, route intravenous; conditions: in vivo

## O=C([C@@H]1CNC[C@]12CCCc1nc(Cl)ccc12)N1CC[C@@H](c2ccccc2)C[C@H]1C1CCCCC1
[1]
  bioavailability: 44%
[2]
  clearance: 15 mL/min/kg
